Experiments:
[1] = molecular target: T1, CYP2C19 (Homo sapiens, UniProt P33261); experiment: Cytochrome P450 isoenzyme inhibition test, human liver microsomes: CYP2C19; type: in vitro ADME; conditions: human liver microsomes 0.1 mg/mL; read-out: IC50, inhibitory activity on CYP2C19
T1 construct: pre-incubated with the human liver microsome solutions containing 5 enzyme mixed substrates; from tissue; host or cells: human liver microsomes
Experimental: (§1) 9. Cytochrome P450 Isoenzyme Inhibition Test Experimental objective: The inhibitory effect of the test compound on the activity of human liver microsomal cytochrome P450 isoenzyme (CYP1A2, CYP2C19, CYP2D6 and CYP3A4) was determined. Experimental operation: The test compound at an incubation concentration of 0, 0.03, 0.1, 0.3, 1, 3, 10, 30 and 100 μM was pre-incubated with the human liver microsome solutions containing 5 enzyme mixed substrates (liver microsome concentration: 0.1 mg/mL) in a water bath at 37° C. for 10 min, respectively, and then a coenzyme factor (NADPH) was added to start the reaction. After incubation in a water bath at 37° C. for 10 min, the reaction was terminated by adding glacial acetonitrile solution containing an internal standard, shaken for 1 min, centrifuged at 4° C. and 10,000 rpm for 10 min, and the supernatant was taken for LC/MS/MS analysis. The amount of metabolites produced by each CYP enzyme substrate was detected. The activity of each CYP isoenzyme was reflected by the production rate of each metabolite. […]

[2] = molecular target: T2, CYP3A4-M (Homo sapiens, UniProt P08684); experiment: Cytochrome P450 isoenzyme inhibition test, human liver microsomes: CYP3A4-M; type: in vitro ADME; conditions: human liver microsomes 0.1 mg/mL; read-out: IC50, inhibitory activity on CYP3A4-M
T2 construct: pre-incubated with the human liver microsome solutions containing 5 enzyme mixed substrates; from tissue; host or cells: human liver microsomes
T2 sequence (P08684 whole entry): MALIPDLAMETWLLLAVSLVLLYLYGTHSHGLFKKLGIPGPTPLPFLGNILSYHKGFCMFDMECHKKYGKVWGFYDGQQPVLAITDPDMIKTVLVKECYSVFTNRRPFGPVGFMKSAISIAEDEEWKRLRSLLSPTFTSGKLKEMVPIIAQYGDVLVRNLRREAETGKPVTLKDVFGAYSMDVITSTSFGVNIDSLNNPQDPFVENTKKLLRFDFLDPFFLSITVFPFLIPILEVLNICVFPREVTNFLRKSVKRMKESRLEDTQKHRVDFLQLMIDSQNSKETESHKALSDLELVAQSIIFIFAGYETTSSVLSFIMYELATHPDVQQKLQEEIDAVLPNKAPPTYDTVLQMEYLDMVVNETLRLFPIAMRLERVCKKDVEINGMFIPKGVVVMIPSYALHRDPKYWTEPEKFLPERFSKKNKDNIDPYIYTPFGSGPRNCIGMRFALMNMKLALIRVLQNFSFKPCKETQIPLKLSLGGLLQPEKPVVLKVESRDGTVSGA
Experimental: as §1

[3] = Evaluation of pharmacokinetics in mice; type: in vivo; conditions: male, mouse, plasma, oral; C57 mice, intravenous 5 mg/kg and intragastric 20 mg/kg
Experimental: Evaluation of Pharmacokinetics in Mice
Male C57 mice (purchased from Hunan SJA Laboratory Animal Co., Ltd, license number: SCXK (Xiang) 2019-0004), 20-25 g, were fasted overnight. On the day of the experiment, 18 male C57 mice were divided into 2 groups, with 9 mice in each group. The test compound was administered intravenously and intragastrically at doses of 5 mg/kg and 20 mg/kg respectively. Before administration and 5 min, 15 min, 30 min, 1 h, 2 h, 4 h, 6 h, 8 h and 24 h after administration, 0.1 ml of blood was collected from the orbital venous plexus, placed in an EDTAK2 centrifuge tube, and centrifuged at 6000 rpm at 4° C. for 5 min, and then the plasma was collected. The plasma sample was added to an acetonitrile solution containing an internal standard (dexamethasone, 500 ng/mL), vortexed and centrifuged at 10,000 rpm for 10 min, and the supernatant was taken for LC-MS/MS analysis. Pharmacokinetic parameters were calculated using the non-compartmental model in WinNonlin Version 8.0 (Pharsight, Mountain View, CA) pharmacokinetic software.

[4] = molecular target: T3, CYP2D6 (Homo sapiens, UniProt P10635); experiment: Cytochrome P450 isoenzyme inhibition test, human liver microsomes: CYP2D6; type: in vitro ADME; conditions: human liver microsomes 0.1 mg/mL; read-out: IC50, inhibitory activity on CYP2D6
T3 construct: pre-incubated with the human liver microsome solutions containing 5 enzyme mixed substrates; from tissue; host or cells: human liver microsomes
T3 sequence (P10635 whole entry): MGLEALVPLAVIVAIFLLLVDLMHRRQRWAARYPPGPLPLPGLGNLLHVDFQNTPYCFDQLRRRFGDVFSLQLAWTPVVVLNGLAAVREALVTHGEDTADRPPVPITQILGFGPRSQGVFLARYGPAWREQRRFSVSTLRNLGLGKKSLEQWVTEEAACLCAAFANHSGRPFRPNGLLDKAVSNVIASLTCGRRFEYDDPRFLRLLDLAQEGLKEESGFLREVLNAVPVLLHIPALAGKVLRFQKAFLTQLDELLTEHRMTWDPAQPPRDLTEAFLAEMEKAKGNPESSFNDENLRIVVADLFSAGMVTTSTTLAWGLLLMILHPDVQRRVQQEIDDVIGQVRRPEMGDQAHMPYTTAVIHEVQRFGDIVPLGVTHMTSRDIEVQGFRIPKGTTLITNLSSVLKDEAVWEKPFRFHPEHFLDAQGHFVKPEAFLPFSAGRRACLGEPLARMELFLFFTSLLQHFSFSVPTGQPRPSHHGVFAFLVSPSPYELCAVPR
Experimental: as §1

[5] = molecular target: T4, hERG potassium channel (Homo sapiens, UniProt Q12809); experiment: Effects on hERG potassium channels, manual whole cell patch-clamp in CHO cells; type: cell-based; conditions: hERG potassium current, room temperature
T4 construct: expressed in transfected cells
T4 sequence (Q12809 whole entry): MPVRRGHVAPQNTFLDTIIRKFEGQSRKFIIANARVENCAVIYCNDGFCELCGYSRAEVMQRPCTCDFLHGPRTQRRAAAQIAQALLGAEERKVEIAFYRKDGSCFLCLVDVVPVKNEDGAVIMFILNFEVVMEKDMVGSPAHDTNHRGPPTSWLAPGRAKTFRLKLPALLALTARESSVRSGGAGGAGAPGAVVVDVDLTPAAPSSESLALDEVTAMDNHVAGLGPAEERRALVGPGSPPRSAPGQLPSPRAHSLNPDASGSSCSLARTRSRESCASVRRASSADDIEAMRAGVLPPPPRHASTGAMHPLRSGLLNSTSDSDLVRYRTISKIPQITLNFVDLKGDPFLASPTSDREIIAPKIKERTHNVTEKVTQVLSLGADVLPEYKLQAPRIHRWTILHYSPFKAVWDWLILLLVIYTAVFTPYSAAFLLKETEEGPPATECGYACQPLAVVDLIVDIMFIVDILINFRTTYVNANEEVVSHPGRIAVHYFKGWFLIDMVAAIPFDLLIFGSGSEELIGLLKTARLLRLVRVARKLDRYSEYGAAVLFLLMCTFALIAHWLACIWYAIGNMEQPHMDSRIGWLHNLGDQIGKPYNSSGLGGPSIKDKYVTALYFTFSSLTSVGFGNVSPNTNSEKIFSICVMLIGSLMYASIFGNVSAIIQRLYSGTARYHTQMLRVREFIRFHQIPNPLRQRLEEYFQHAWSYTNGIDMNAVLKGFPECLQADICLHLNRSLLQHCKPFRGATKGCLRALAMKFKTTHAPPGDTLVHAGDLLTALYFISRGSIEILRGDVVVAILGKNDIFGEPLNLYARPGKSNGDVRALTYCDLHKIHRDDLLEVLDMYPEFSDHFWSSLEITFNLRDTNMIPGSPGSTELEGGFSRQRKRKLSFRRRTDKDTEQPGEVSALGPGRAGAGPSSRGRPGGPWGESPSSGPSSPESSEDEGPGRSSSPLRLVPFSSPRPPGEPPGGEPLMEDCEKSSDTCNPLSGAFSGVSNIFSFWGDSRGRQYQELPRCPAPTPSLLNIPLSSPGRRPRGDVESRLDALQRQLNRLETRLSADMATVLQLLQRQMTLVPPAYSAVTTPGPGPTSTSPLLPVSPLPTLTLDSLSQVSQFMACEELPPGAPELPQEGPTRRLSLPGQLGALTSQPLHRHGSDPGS
Excerpt: 2. Effects of the Compounds on hERG Potassium Channels
Experimental platform: electrophysiological manual patch-clamp system
Cell line: Chinese hamster ovary (CHO) cells stably expressing hERG potassium ion channel
Experimental method: For CHO (Chinese Hamster Ovary) cells stably expressing hERG potassium channel, whole cell patch-clamp technique was used to recorded hERG potassium channel current at room temperature in this experiment. The glass microelectrode is made of a glass electrode blank (BF150-86-10, Sutter) by a puller. The tip resistance after filling the liquid in the electrode is about 2-5 MΩ. The glass microelectrode can be connected to the patch-clamp amplifier by inserting the glass microelectrode into an amplifier probe. The clamping voltage and data recording are controlled and recorded by the pClamp 10 software through a computer. The sampling frequency is 10 kHz, and the filtering frequency is 2 kHz. After the whole cell records were obtained, the cells were clamped at −80 mV, and the step voltage that induced the hERG potassium current (IhERG) was depolarized from −80 mV to +20 mV for 2 s, then repolarized to −50 mV, and returned to −80 mV after 1 s. This voltage stimulation was given every 10 s, and the administration process was started after the hERG potassium current was confirmed to be stable (at least 1 minute). The compound was administered for at least 1 minute at each test concentration, and at least 2 cells (n≥2) were tested at each concentration.
Data analysis processing was carried out by using pClamp 10, GraphPad Prism 5 and Excel software. The inhibition degree of hERG potassium current (peak value of hERG tail current induced at −50 mV) at different compound concentrations was calculated by the following formula: Inhibition %=[1−(I/Io)]×100%.
Among the formula, Inhibition % represents the percentage of inhibition of hERG potassium current by the compound, and I and Io represent the amplitude of hERG potassium current after and before dosing, respectively.
Compound IC50 was calculated using GraphPad Prism 5 software by fitting according to the following equation:
Y=Bottom+(Top−Bottom)/(1+10^((LogIC50−X)×HillSlope))
Among the equation, X represents the Log value of the tested concentration of the test sample, Y represents the inhibition percentage at the corresponding concentration, and Bottom and Top represent the minimum and maximum inhibition percentage, respectively.

T1 sequence (P33261 whole entry): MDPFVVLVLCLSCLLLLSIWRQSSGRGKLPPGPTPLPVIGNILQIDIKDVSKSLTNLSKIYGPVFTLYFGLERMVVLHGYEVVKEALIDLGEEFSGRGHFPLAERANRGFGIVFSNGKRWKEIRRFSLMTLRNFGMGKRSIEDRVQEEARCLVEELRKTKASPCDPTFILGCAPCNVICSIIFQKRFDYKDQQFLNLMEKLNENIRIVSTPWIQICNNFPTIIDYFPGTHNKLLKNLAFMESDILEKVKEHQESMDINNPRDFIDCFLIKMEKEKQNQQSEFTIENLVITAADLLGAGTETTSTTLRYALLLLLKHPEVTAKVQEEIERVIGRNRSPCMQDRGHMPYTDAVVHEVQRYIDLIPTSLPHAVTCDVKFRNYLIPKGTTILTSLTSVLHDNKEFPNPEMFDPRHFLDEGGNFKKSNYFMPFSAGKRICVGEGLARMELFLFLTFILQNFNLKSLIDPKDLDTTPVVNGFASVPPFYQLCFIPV

Question: Which IC50 [1] does the source give for `N#Cc1ccc(COc2cccc(-c3ccc(Cc4nc5sc(C(=O)O)cc5n4C[C@@H]4CCO4)c(F)c3)n2)c(F)c1` [Compound 6, (S)-2-(4-(6-((4-cyano-2-fluorobenzyl)oxy)pyridin-2-yl)-2-fluorobenzyl)-1-(oxetan-2-ylmethyl)-1H-thieno[2,3-d]imidazole-5-carboxylic acid] here?
Answer: > 50 µM

Question: And the IC50 [2]?
Answer: > 50 µM

Question: What about the bioavailability [3] of the same molecule?
Answer: > 25%

Question: What about the IC50 [4] of the same molecule?
Answer: > 50 µM

Question: What about the IC50 [5] of the same molecule?
Answer: > 40 µM

Reference: patent publication US20240124470A1, “FIVE-MEMBERED RING DERIVATIVE AND MEDICAL USE THEREOF” (SICHUAN HAISCO PHARMACEUTICAL CO., LTD., priority 2020, published 2024)
